Activity calls are given as the source filed them.
Assays:
[1] = target: Wee1-like protein kinase (Homo sapiens, UniProt P30291); test: Dose Response Cell-based Assay for Inhibitors of Wee1 Degradation. [Related pubchem assays: 1410, 1321 ]; assay type: functional
[2] = target: G2/mitotic-specific cyclin-B1 (Homo sapiens, UniProt P14635); test: Counterscreen assay for inhibitors of Wee1 degradation: dose response cell-based assay to identify inhibitors of cyclin B degradation. [Related pubchem assays: 1410, 1321 ]; assay type: functional
[3] = target: Lysosomal acid glucosylceramidase (Homo sapiens, UniProt P04062); test: Dose response cell-based high throughput screening assay to identify enhancers of beta-glucosidase activity. [Related pubchem assays: 784 ]; assay type: functional
[4] = target: Cytochrome P450 3A4 (Homo sapiens, UniProt P08684); settings: Potency;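 further: confirmatory qHTS run detecting inhibitors and substrates of CYP3A4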
[5] = target: Cytochrome P450 2D6 (Homo sapiens, UniProt P10635); test: qHTS Assay for Inhibitors and Substrates of Cytochrome P450 2D6. [Related pubchem assays: 410 ]; assay type: ADME; settings: read-out: Potency
[6] = inhibitors of firefly luciferase expression or activity, dose response, H4 neuroglioma cells, luminescence (AID 1990); assay type: functional, cell-based
[7] = cells; assay type: functional, cell-based
[8] = Luminescence-based dose response cell-based high throughput screening assay for cytotoxic compounds using the IEC-6 intestinal epithelial cell line. [Related pubchem assays: 1858 (Summary AID.), 1825 (Counterscreen.), 1907 (Confirmation screen.)]; assay type: functional
[9] = tested on: BJ; test: cytotoxicity toward Ras-transformed BJeLR fibroblasts, dose response, cell-based, alamar blue fluorescence, cherrypicked samples (AID 2631); assay type: functional; settings: Homo sapiens;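 further: confirmatory dose-response assay in RAS-dependent BJ fibroblasts engineered with TERT, LT and ST, with cytotoxicity read by fluorescence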
[10] = tested on: BJ; test: cytotoxicity toward BJ-TERT-LT-ST fibroblasts, dose response, cell-based, RAS-independent, luminescence (AID 1935); assay type: functional; settings: Homo sapiens;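 further: BJ fibroblasts immortalized with TERT plus LT and ST oncogenes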
[11] = tested on: BJ; test: cells; assay type: functional, cell-based; settings: Homo sapiens
[12] = Luminescence Cell-Based Dose Response HTS to Identify Inhibitors of 5'UTR Stem-Loop Driven Prion Protein mRNA Translation in H4 Neuroglioblastoma Cells. [Related pubchem assays: 1827 (Project Summary), 1813 (Primary HTS)]; assay type: functional
[13] = target: T1, Aminopeptidase N (Plasmodium falciparum FcB1/Columbia, UniProt O96935); test: P. falciparum M1AAP inhibitors, biochemical, fluorogenic H-Leu-NHMec substrate, 1536-well (AID 1445); set-up: species or system Plasmodium falciparum 3D7, 3D7
T1 sequence (O96935 whole entry): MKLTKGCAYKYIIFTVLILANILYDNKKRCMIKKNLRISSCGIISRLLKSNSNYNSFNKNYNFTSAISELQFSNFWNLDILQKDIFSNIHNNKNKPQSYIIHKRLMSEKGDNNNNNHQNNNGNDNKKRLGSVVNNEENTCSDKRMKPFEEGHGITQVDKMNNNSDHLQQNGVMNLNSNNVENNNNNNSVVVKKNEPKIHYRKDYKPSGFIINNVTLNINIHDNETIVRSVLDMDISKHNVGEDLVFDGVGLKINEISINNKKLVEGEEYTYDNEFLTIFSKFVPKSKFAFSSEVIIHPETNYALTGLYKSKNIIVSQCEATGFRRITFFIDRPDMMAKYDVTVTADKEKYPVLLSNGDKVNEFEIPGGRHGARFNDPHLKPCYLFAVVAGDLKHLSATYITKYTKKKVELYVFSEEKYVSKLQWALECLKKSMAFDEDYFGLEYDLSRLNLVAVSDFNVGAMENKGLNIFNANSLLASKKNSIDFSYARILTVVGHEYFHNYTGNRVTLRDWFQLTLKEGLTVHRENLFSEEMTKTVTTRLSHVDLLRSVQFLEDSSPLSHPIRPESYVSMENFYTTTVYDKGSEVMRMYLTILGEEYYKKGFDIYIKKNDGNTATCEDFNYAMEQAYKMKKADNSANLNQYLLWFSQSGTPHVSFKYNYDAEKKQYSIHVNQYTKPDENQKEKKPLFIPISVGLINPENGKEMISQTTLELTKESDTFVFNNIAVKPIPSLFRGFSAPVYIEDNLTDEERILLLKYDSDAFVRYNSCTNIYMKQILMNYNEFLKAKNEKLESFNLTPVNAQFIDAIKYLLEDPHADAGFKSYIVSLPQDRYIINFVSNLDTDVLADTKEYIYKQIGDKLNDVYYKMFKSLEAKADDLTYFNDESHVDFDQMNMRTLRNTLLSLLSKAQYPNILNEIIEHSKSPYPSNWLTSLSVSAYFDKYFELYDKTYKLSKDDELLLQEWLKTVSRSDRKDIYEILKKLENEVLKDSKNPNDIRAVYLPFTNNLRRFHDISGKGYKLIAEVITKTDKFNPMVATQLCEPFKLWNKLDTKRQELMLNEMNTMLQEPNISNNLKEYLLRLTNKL

[14] = tested on: HEK293; test: inhibitors of LMP1-driven NF-kB reporter, dose response, cell-based, HEK293, luciferase, cherry-pick (AID 588343); assay type: functional; settings: Homo sapiens
[15] = tested on: BJ; test: cytotoxicity toward BJ-TERT fibroblasts, dose response, cell-based, RAS-independent, luminescence (AID 1933); assay type: functional; settings: Homo sapiens
[16] = luciferase reporter signal reduction – luminescence, H4-C neuroglioblastoma cells, dose response (AID 2458); assay type: functional, cell-based;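 further: H4 neuroglioblastoma cells stably carrying a luciferase reporter gene fusion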
[17] = inhibitors of SNCA 5'UTR-driven translation, confirmation, luminescence, H4 neuroglioblastoma cells, dose confirmation (AID 2454); assay type: functional, cell-based;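 further: H4 neuroglioblastoma cells carrying an alpha-synuclein 5'UTR luciferase reporter; potency for inhibition of the luciferase signal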
[18] = inhibitors of SNCA 5'UTR-driven reporter translation, confirmation, H4 neuroglioma cells, luminescence (AID 1988); assay type: functional, cell-based
[19] = target: T2, Alkaline phosphatase, tissue-nonspecific isozyme (Homo sapiens, UniProt P05186)
T2 sequence (P05186 whole entry): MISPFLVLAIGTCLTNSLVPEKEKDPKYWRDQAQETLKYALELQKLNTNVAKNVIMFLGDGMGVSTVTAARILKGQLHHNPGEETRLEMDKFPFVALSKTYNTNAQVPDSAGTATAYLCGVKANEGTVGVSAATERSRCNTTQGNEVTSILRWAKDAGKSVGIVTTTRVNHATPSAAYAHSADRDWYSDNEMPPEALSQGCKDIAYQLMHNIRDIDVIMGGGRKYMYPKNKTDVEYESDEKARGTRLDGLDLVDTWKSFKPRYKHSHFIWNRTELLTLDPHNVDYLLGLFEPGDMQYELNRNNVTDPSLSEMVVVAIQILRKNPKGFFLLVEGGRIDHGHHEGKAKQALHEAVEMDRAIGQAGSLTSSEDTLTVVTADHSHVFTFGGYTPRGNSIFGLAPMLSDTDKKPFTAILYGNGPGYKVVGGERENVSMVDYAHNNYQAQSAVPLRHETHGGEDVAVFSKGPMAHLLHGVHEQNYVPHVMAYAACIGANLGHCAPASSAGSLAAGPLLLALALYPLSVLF

[20] = target: T3, Neuropeptide Y receptor type 2 (Homo sapiens, UniProt P49146); test: Fluorescence-based counterscreen for agonists of NPY-Y1: cell-based high-throughput dose response assay for agonists of NPY-Y2.; assay type: functional
T3 sequence (P49146 whole entry): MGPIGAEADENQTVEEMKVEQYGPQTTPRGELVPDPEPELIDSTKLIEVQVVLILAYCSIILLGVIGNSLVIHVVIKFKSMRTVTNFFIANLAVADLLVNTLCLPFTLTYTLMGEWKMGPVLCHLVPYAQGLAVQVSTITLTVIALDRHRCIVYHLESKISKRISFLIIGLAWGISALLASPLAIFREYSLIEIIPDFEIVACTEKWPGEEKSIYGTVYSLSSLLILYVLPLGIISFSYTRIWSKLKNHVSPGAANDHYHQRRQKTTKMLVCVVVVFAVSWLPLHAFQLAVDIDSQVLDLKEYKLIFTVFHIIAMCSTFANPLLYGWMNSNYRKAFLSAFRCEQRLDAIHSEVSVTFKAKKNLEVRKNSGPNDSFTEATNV

[21] = target: T4, Neuropeptide Y receptor type 1 (Homo sapiens, UniProt P25929); test: Fluorescence-based dose response cell-based high-throughput screening assay for agonists of NPY-Y1. [Related pubchem assays: 1697 (Screening assay (NPY-Y1 agonists).), 1359 (Screening assay (NPY-Y2 potentiators or agonists).), 1304 (Screening assay (NPY-Y1 potentiators or agonists).), 1704 (Screening assay (CNGC inhibitors).), 1791 (Summary AID.)]; assay type: functional
T4 sequence (P25929 whole entry): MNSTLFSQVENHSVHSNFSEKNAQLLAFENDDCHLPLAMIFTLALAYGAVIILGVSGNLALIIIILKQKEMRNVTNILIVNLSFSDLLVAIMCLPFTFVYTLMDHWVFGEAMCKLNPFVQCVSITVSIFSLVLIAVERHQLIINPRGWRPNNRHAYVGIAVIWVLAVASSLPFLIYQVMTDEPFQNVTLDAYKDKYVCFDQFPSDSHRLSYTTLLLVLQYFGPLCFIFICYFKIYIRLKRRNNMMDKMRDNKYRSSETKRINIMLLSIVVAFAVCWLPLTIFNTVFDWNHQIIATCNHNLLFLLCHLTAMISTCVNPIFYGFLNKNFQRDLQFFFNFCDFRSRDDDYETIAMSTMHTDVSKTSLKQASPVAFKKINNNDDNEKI

[22] = tested on: HEK293; test: Fluorescence-based counterscreen for potentiators or agonists of NPY-Y1: cell-based high-throughput dose response assay for inhibitors of cyclic nucleotide gated ion channel (CNGC) activity. In this assay, the parental HEK293 cell line transfected with a cyclic-nucleotide gated ion channel (CNGC)-based cAMP sensor is used to measure inhibition of isoproterenol-induced CNGC …; assay type: functional; settings: Homo sapiens
[23] = M. tuberculosis growth inhibition, HTS (AID 449762); assay type: functional
[24] = target: T5, Estrogen receptor (Homo sapiens, UniProt P03372);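 further: potency for inhibiting coactivator peptide recruitment to the receptor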
T5 sequence (P03372 whole entry): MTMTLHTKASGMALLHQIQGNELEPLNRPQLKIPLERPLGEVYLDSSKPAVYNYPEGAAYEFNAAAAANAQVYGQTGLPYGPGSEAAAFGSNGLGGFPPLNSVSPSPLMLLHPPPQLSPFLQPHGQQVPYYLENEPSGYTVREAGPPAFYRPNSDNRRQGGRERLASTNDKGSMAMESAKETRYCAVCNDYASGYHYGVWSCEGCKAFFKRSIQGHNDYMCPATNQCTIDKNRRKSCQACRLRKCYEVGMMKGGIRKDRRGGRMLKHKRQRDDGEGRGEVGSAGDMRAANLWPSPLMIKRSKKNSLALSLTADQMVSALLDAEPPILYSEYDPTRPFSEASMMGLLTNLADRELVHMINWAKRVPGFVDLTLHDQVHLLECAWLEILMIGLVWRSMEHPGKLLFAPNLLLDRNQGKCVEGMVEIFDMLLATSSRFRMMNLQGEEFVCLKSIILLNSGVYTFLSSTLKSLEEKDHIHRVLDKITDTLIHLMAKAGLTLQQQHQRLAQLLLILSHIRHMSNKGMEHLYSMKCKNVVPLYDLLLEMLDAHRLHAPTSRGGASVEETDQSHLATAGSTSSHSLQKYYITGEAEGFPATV

[25] = tested on: Streptococcus; test: Luminescence Microorganism-Based Dose Response Follow up to Identify Compounds Cytotoxic to Streptococcus. [Related pubchem assays: 1677 (Project Summary), 1915, 1914, 1902 (Retest at Dose), 1900 (Counter Screen), 1662 (Primary HTS)]; assay type: functional, organism-based
[26] = tested on: Streptococcus sp. 'group A'; test: growth inhibition of control SK(-) GAS strain, dose response, counter-screen for streptokinase expression inhibitor project, luminescence, kanamycin, BacTiterGlo, confirmation (AID 1900); assay type: functional, organism-based
[27] = tested on: Streptococcus; test: Group A Streptococcus viability loss, dose response, counter-screen for streptokinase expression inhibitor project, luminescence, BacTiterGlo (AID 1915); assay type: functional, organism-based;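 further: potency for reduction of bacterial viability or growth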
[28] = target: T6, Streptokinase A (Streptococcus pyogenes serotype M1, UniProt P10520); test: S. pyogenes streptokinase expression inhibitors, potency, dose response, plasminogen activation absorbance, OD405 (AID 1914); assay type: functional, Streptococcus pyogenes M1 GAS;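 further: secreted streptokinase activity via plasminogen activation per viability signal from cell pellet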
T6 sequence (P10520 whole entry): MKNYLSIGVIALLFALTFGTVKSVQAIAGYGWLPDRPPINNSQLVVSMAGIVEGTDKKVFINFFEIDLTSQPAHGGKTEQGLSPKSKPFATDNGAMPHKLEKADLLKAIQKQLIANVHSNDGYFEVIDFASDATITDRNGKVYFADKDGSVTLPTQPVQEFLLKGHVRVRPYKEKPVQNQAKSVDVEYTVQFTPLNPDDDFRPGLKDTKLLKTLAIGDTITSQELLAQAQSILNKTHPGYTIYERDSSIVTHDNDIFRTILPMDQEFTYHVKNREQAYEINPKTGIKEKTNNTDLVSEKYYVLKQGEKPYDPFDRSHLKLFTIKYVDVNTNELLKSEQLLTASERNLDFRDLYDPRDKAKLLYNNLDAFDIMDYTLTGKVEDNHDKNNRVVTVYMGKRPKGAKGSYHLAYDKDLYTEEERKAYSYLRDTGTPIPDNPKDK

Chain of Cytochrome P450 2D6 (P10635 whole entry): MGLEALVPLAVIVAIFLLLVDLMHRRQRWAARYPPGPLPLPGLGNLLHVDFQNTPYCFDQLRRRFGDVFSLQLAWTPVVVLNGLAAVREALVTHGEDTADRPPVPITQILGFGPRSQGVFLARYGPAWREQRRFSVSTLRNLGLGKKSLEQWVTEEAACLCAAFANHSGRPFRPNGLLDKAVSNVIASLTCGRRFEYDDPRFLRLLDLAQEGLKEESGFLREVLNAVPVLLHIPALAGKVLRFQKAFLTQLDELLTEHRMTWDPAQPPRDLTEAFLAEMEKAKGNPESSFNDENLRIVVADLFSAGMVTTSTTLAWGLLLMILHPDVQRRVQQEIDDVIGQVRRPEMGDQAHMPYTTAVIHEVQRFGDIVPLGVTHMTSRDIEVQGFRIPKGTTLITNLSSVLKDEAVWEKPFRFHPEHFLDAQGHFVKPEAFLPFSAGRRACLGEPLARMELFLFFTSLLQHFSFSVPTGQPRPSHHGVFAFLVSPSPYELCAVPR
Chain of G2/mitotic-specific cyclin-B1 (P14635 whole entry): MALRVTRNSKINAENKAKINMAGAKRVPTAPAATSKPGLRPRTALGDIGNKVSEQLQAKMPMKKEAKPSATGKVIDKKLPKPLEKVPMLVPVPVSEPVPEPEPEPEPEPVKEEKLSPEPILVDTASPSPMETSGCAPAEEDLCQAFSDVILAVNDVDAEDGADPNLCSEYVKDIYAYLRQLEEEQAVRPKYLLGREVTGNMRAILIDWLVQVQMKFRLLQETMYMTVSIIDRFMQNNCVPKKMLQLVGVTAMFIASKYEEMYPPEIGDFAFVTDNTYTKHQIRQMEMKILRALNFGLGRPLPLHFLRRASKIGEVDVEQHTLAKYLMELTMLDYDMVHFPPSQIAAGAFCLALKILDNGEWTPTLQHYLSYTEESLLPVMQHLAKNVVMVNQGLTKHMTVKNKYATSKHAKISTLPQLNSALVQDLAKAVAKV
Chain of Lysosomal acid glucosylceramidase (P04062 whole entry): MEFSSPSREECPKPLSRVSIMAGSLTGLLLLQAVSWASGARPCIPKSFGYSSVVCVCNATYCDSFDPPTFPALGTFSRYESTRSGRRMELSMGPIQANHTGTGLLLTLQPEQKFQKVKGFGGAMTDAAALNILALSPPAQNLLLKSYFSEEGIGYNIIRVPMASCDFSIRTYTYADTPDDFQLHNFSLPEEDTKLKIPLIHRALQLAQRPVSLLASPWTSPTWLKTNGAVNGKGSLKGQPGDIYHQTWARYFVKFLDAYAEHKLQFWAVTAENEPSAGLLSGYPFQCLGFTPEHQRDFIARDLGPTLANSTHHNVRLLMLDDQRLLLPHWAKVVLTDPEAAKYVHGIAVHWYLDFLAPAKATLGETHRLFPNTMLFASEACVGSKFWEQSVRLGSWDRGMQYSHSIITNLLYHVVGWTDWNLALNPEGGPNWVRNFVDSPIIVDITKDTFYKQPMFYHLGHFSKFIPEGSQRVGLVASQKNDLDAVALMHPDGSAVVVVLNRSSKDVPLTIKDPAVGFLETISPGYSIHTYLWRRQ
Chain of Cytochrome P450 3A4 (P08684 whole entry): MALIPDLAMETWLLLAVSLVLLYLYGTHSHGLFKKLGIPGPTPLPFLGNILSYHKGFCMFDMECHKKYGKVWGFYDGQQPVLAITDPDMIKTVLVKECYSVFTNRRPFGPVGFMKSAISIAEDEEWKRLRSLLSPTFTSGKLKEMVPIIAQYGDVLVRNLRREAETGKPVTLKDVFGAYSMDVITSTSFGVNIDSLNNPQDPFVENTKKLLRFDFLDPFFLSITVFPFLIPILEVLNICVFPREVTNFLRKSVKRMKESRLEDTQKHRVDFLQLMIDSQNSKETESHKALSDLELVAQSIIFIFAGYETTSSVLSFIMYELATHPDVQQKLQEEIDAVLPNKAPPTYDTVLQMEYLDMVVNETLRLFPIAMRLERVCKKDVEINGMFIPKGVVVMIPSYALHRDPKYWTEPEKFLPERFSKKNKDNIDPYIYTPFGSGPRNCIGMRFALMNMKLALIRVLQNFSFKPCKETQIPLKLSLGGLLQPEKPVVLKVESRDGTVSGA
Chain of Wee1-like protein kinase (P30291 whole entry): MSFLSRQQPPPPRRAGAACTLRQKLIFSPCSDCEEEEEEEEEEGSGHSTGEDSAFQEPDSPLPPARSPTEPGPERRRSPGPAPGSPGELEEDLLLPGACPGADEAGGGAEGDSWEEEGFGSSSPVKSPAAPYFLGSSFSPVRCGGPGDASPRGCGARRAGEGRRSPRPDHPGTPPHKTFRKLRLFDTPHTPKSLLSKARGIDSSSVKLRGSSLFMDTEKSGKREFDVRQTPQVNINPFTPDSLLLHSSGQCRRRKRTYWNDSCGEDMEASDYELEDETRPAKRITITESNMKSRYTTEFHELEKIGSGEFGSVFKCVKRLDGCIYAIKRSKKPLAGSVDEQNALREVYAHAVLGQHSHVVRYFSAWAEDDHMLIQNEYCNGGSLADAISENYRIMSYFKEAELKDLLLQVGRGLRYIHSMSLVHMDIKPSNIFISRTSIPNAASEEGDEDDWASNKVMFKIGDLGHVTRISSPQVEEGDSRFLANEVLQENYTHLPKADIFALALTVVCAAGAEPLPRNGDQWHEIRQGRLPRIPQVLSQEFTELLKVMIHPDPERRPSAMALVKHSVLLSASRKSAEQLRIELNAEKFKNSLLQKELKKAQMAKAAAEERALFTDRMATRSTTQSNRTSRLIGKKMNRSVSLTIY

## COc1ccc(Nc2oc(-c3ccc(OC)cc3)nc2C#N)cc1
[1]
  EC50: > 49.7 µM (not active)
[2]
  EC50: > 49.7 µM (not active)

## O=S(=O)(NCc1csc(-c2cccnc2)n1)c1ccc2c(c1)OCCO2
[3]
  EC50: > 50 µM (not active)

## COc1cccc2[nH]c(-c3ccccn3)nc12
[4]
  AC50: 3.98 µM (inconclusive)
[5]
  AC50: 1.58 µM (inconclusive)

## Cc1nc(N)nc(N)c1/C=C/C(C)(C)c1ccc(Cl)cc1
[6]
  EC50: < 0.1 µM (active)
[7]
  EC50: 0.012 µM (active)
[8]
  IC50: > 0.00202 µM (active)
[9]
  EC50: > 133 µM (inactive)
[10]
  EC50: > 150 µM (inconclusive)
[11]
  EC50: < 0.12 µM (active)
[12]
  EC50: < 0.1 µM (active)
[13]
  IC50: 66.2 µM (active)
[14]
  AC50: 0.0458 µM (active)
[15]
  EC50: 15.9 µM (active)
[16]
  EC50: 0.009 µM (active)
[17]
  EC50: < 0.001 µM (active)
[18]
  EC50: < 0.1 µM (active)

## CCCCNC(=O)CSc1nc2cc3c(cc2c(=O)n1CCC(=O)NCCc1ccc(OC)c(OC)c1)OCO3
[19]
  EC50: > 100 µM (not active)

## CCn1c(SCC(=O)Nc2ccc3c(c2)oc2ccccc23)nnc1-c1ccc(N)cc1
[20]
  EC50: 7.96 µM (active)
[21]
  EC50: 7.16 µM (active)
[22]
  IC50: 2.88 µM (active)
[23]
  IC50: > 100 µM (active)
[24]
  IC50: 11.7 µM (active)

## CCOc1ccc(Cl)cc1S(=O)(=O)n1cnc2cc(C)c(C)cc21
[25]
  EC50: > 500 µM (not active)
[26]
  EC50: 23.8 µM (active)
[27]
  EC50: > 150 µM (not active)
[28]
  EC50: 7.31 µM (active)

— ChEMBL document CHEMBL1201862, “PubChem BioAssay data set” (2004)
